Measured values reported in the METLIN SMRT retention time set (Domingo-Almenara et al. 2019).

Assay: gradient 5% acetonitrile 3 min, to 50% in 2 min, to 85% in 15 min, held 3 min, 100 µL/min
Details: column: Zorbax Extend-C18 2.1 x 50 mm; eluents: water / acetonitrile, 0.1% formic acid
Procedure, shortened: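 In both positive and negative ionization mode, a quadrupole time-of-flight mass spectrometer coupled to HPLC analyzed pure standards run in mixtures of ~100 molecules. The Zorbax Extend-C18 column (2.1 × 50 mm, 1.8 μm) was operated at 100 μL/min with water and acetonitrile, each containing 0.1% formic acid. The dead volume was 40 μL and the dwell volume 900 μL. Retention time came from adduct peaks that were computationally picked and individually inspected by hand.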

| Compound | RP-LC retention time [s] |
| --- | --- |
| Cc1noc(C)c1S(=O)(=O)N1CC(N(C)Cc2cccnc2)C1 | 594 |
| COc1ccccc1C(=O)N1CCCC1COc1ccc(C(=O)NC2CC2)cc1 (configuration not stated) | 759 |
| O=C(CN1CCc2[nH]c3c(F)ccc(F)c3c(=O)c2C1)Nc1ccccc1Cl | 953 |
| C[C@H]1CN(C(=O)Nc2ccc(Cl)cc2)C[C@@H]1c1nc(-c2ccncc2)no1 | 821 |
| O=C(NCc1ccccn1)C1CCc2sc(C(=O)N3CCCCC3)cc2C1 (configuration not stated) | 506 |
| Cc1oc2ccn(Cc3ccccc3F)c(=O)c2c1C(=O)NC(C)c1ccccc1 (configuration not stated) | 1150 |
| CCn1cc(C(=O)NCc2cccc(C)c2)c2cccnc21 | 812 |
| Cc1ccn2cc(C(=O)NCc3cccc(F)c3)nc2c1 | 645 |
| Cc1ccc(-c2cc(C(=O)NCCCN3CCC(C)CC3)c(C)[nH]2)cc1C | 725 |
| COc1ccc(CC(=O)N2CCCC2COc2ccc(C(=O)N3CCCC3)cc2)cc1 (configuration not stated) | 824 |
| CCCC(=O)Nc1ccc2c(c1)CN(C(=O)c1ccc(C#N)cc1)C(C(=O)N(C)C)C2 (configuration not stated) | 681 |
| Cc1nc2cc(-c3noc(CNC(=O)Cc4ccc(Cl)cc4)n3)ccc2o1 | 858 |
| CC(C)CNC(=O)NC(c1ccccc1)c1nnc(-c2ccccc2Cl)o1 (configuration not stated) | 898 |
| CC1(C(=O)NCc2ccc(F)cc2)CCCN(C(=O)NCCc2ccccc2)C1 (configuration not stated) | 857 |
| CCC1=NS(=O)(=O)c2cccnc2N1c1ccc2c(c1)OCCO2 | 800 |
| Cc1nn(CC(=O)NC2CCCCCC2)c(=O)c2c(C)n(-c3ccccc3)nc12 | 807 |
| Cc1cccc(NC(=O)CN2C(=O)CCCc3cc(S(=O)(=O)N4CCC(C)CC4)ccc32)c1 | 1010 |
| O=C(CC1CCCC1)NCC1(c2ccccc2)CCCOCC1 (configuration not stated) | 872 |
| CCOc1ccc(Cl)cc1S(=O)(=O)N1CCC(C(=O)N2CCCC2)CC1 | 820 |
| Cc1noc(C)c1CCNC(=O)CCCn1c(=O)c2cccn2c2ccc(Br)cc21 | 803 |
| O=C1CN(S(=O)(=O)c2cccnc2)C2(CCCC2)CN1CC1CC1 | 746 |
| O=C(c1ccc2ncnc(N3CCCC3)c2c1)N1CCCCC1 | 577 |
| CCN(CC)CCCNC(=O)C(C)n1c(=O)c(C(F)(F)F)nc2cc(C)c(C)cc21 (configuration not stated) | 740 |
| Cc1noc(C2CN(C(=O)Nc3cccc(Cl)c3F)CC23CCOCC3)n1 (configuration not stated) | 783 |
| CC1Oc2ccc(-c3csc(NC(=O)COc4ccc(Cl)cc4)n3)cc2NC1=O (configuration not stated) | 966 |
| COc1cc([C@@H]2c3cc4c(cc3[C@@H](O)[C@H]3COC(=O)[C@H]23)OCO4)cc(OC)c1O | 680 |

| Compound | RP-LC retention time [s] |
| --- | --- |
| Cc1ccc(S(=O)(=O)N2CCC(CCC(=O)NC3CCS(=O)(=O)C3)CC2)cc1 (configuration not stated) | 740 |
| CN1C(=O)c2cc(C(=O)Nc3cccc(Cl)c3)nn2CC1(C)C(=O)NC1CCCCC1 (configuration not stated) | 860 |
| CS(=O)(=O)Nc1cccc(NC(=O)CCc2c[nH]c3ccccc23)c1 | 714 |
| Fc1ccc(CN2CCC[C@H]2c2nc(C3CCOCC3)n[nH]2)c(Cl)c1 | 586 |
| CN1CCn2cc(S(=O)(=O)Nc3cccc(C#N)c3)cc2C1=O | 662 |
| CC(C)CCN1CCC(N2CCN(C(=O)c3cccs3)CC2)C1=O (configuration not stated) | 567 |
| O=C(NCCCN1CCCC1)C1CCN(c2cnc(N3CCCC3)nc2)CC1 | 542 |
| COc1ccc(CN(CCC2(C(C)C)CCOC(C)(C)C2)C(C)=O)cc1 (configuration not stated) | 987 |
| CCC(=O)NCCc1csc(C2CCN(C(=O)C3CCC3)CC2)n1 | 679 |
| CCOC(=O)c1ccc(NC(=O)c2cccc([N+](=O)[O-])c2)cc1 | 890 |
| CCOC(=O)c1[nH]c(C)c(CCC(=O)NCCN2CCOCC2)c1C | 597 |
| Cc1ccc(CNC(=O)CNS(=O)(=O)c2cc(-c3noc(C)n3)sc2C)cc1 | 847 |
| CCOc1ccccc1NC(=O)C(=O)NCCc1ccsc1 | 1020 |
| Clc1ccc(Nc2c(-c3cccc(Cl)c3)nc3ccc(Cl)cn23)cc1 | 1140 |
| Cn1ccc(C(=O)Nc2ccc(Cl)cc2C(=O)c2ccccc2)n1 | 1010 |
| CS(=O)(=O)Nc1cccc(C2=NN(S(C)(=O)=O)C(c3cccc([N+](=O)[O-])c3)C2)c1 (configuration not stated) | 740 |
| Cn1ncc2c3ccccc3n(CC(=O)NCCCN3CCOCC3)c2c1=O | 582 |
| Nc1nc(Cl)nc2c1ncn2[C@@H]1O[C@H](CO)[C@@H](O)[C@@H]1F | 600 |
| CCOC(=O)c1c(N2C(=O)CC(Sc3ccccc3C(=O)O)C2=O)sc(C)c1C (configuration not stated) | 821 |
| CCC(C)N1CC(=O)N(c2ccc(OC)c(Cl)c2)[C@@H]2CS(=O)(=O)C[C@@H]21 (some centres not stated) | 786 |
| Cc1nc(NC(=O)N2CCC[C@H]2C(N)=O)sc1-c1csc(C(C)(C)C)n1 | 776 |
| CCS(=O)(=O)N1CC(=O)N(c2ccc(F)cc2)C(C)(C(=O)NC2CCCCCCC2)C1 (configuration not stated) | 938 |
| COC(=O)Cn1nc2ccc(S(=O)(=O)N3CCSCC3)cn2c1=O | 711 |
| CCn1nc(C)cc1C(=O)Nc1nc(-c2cccs2)cs1 | 903 |
| CC1=C(C(=O)OC(C)C)C(c2cccc(Oc3ccccc3)c2)NC(=O)N1 (configuration not stated) | 938 |
| CCN1CCCC1CN(CC(=O)N1CCNCC1)S(=O)(=O)c1cc(C)ccc1C (configuration not stated) | 581 |

Continued, values first:

| RP-LC retention time [s] | Compound |
| --- | --- |
| 1060 | CCCCn1c(=O)c2ccccc2n(Cc2nc(-c3ccc(OC)c(OC)c3)no2)c1=O |
| 795 | Cc1nn(CCC(=O)Nc2ccc(F)cc2F)c(=O)c2nn(-c3ccccc3)c(C)c12 |
| 878 | Cc1noc2ncnc(N3CCCC(C(=O)N4CCCc5ccccc54)C3)c12 (configuration not stated) |
| 820 | O=[N+]([O-])c1ccc(-c2nc(N3CCCCCC3)c3ccccc3n2)cc1 |
| 777 | O=C(NC1CCN(c2cc(-c3ccc(Cl)cc3)[nH]n2)C1)c1ccccc1F (configuration not stated) |
| 705 | COC(=O)c1ccc2c(=O)n(-c3cccc(OC)c3)c(N3CCN(c4ccccn4)CC3)nc2c1 |
| 600 | O=C(c1csc(-c2ccc(N3CCCCC3)nc2)n1)N1CCN(c2ccccn2)CC1 |
| 694 | Cc1cccc(NS(=O)(=O)c2cc3n(c2)CCN(C)C3=O)c1C |
| 910 | Cc1ccc(-c2c(C(F)(F)F)nn3c(N4CCN(c5ccccn5)CC4)cc(C)nc23)cc1 |
| 572 | Cc1cc(N2CCN(C)CC2)nc2ccc(NC(=S)NCCC(C)C)cc12 |
| 967 | Cc1nc(-c2ccccc2)cc2nn(CC(=O)Nc3ccc(F)cc3Cl)c(=O)n12 |
| 765 | Cn1c(N2CCCC(C(=O)N3CCN(c4ccccc4F)CC3)C2)cc(=O)n(C)c1=O (configuration not stated) |
| 1040 | CCOc1ccc(N2C(=O)C3N=NN(Cc4nc(-c5cccc(C)c5)no4)C3C2=O)cc1 (configuration not stated) |
| 1110 | Cn1nc(-c2nnc(-c3ccccc3)o2)c2c1CCN(S(=O)(=O)c1ccc3c(c1)CCCC3)C2 |
| 817 | Cc1ccc(CNC(=O)c2cccc(-c3cnc(N4CCCC4)nc3)c2)o1 |
| 758 | COc1ccc(OC)c(NC(=O)N2CCC(N3CCN(Cc4ccc(C)cc4)C(=O)C3=O)CC2)c1 |
| 913 | COc1ccccc1-c1nnc(-c2ccc(Cl)c(S(=O)(=O)N(C)C)c2)o1 |
| 1070 | COC(=O)c1ccc(-c2nc3cnccn3c2Nc2ccc(C(C)C)cc2)cc1 |

| RP-LC retention time [s] | Compound |
| --- | --- |
| 703 | Fc1ccc(OCc2cn(C3CN(Cc4ccc(F)cc4F)C3)nn2)cc1 |
| 999 | CCC(C)NC(=O)N1CC(Oc2ccccc2-c2nc(-c3ccccc3)no2)C1 (configuration not stated) |
| 707 | Cc1ccc(C)c(NS(=O)(=O)c2cc3n(c2)CCN(C)C3=O)c1 |
| 1170 | Cc1ccccc1-c1nc(-c2ccc(S(=O)(=O)N3CCOCC3)cc2)no1 |
| 616 | Cc1cc(F)cc2c(=O)c3c([nH]c12)CCN(CC(=O)Nc1ccccc1)C3 |
| 1410 | Cc1cccc(OCc2nc(C)c(C(=O)Nc3nc(-c4ccc(C)c(C)c4)cs3)s2)c1 |
| 585 | CCN1CCN(C(=O)c2cnn(-c3cc(-c4nc(C)no4)ccn3)c2C)CC1 |
| 722 | CCCc1noc(-c2cccnc2N2CCCN(Cc3cccc(F)c3)CC2)n1 |
| 614 | Cc1nc(-c2ccnc(N3CCOCC3)c2)no1 |
| 1020 | Cc1nc2cc(-c3noc(-c4ncoc4-c4ccccc4)n3)ccc2o1 |
| 978 | O=C(Cn1cc(-c2ccccc2)c(N2CCOCC2)n1)N1CCN(c2ccccc2F)CC1 |
| 862 | CS(=O)(=O)c1ccc(NC(=O)Cn2cnc3c(sc4nc(-c5ccccc5)ccc43)c2=O)cc1 |
| 654 | Cc1ccc2[nH]c(=O)c(CCC(=O)N3CCCN(c4ncccn4)CC3)cc2c1 |
| 990 | O=C(Cn1cccc(-c2nc(-c3ccc(Br)cc3)no2)c1=O)Nc1ccc(F)cc1F |
| 671 | CCOC(=O)c1c(C)oc2ncnc(NCc3ccccn3)c12 |
| 672 | Cc1cccc(CNC(=O)CCC2CCN(c3cc(NC4CC4)ncn3)CC2)c1 |
| 754 | Cc1cc(C)n(-c2nc3cc(Cl)ccc3nc2N2CCN(c3ccccn3)CC2)n1 |
